Results reported in US20180371021A1, “PEPTIDOMIMETIC MACROCYCLES AND USES THEREOF” (Aileron Therapeutics, Inc., priority 2017, published 2018).
Bridge positions count the residues as written; N and C are the ends. Square brackets hold non-standard residues; d marks the D form. Peptide text beside a SMILES is read from it. Phe(4-COOH) = N[C@@H](Cc1ccc(C(=O)O)cc1)C(=O)O; R8 = C=CCCCCCC[C@@](C)(N)C(=O)O; Cba = N[C@@H](CC1CCC1)C(=O)O; S5 = C=CCCC[C@](C)(N)C(=O)O

What was measured:
[1] = 39 patients treated with nivolumab; 30 patients treated with pembrolizumab; cited from earlier work
[2] = system: MCF-7 breast cancer xenograft; assay: MCF-7 breast cancer xenograft study using SP315, SP249 and SP154; format: in vivo, mice
Experimental: Slow release 90 day 0.72 mg 17β-estradiol pellets were implanted subcutaneously (sc) on the nape of the neck one day prior to tumor cell implantation (Day −1). On Day 0, MCF-7 tumor cells were implanted sc in the flank of female nude (Cr1:NU-Foxn1nu) mice. On Day 18, the resultant sc tumors were measured using calipers to determine their length and width, and the mice were weighed. The tumor sizes were calculated using the formula (length×width^2)/2, and expressed as cubic millimeters (mm^3). Mice with tumors smaller than 85.3 mm^3 or larger than 417.4 mm^3 were excluded from the subsequent group formation. Thirteen groups of mice, 10 mice per group, were formed by randomization such that the group mean tumor sizes were essentially equivalent (mean of groups±standard deviation of groups=180.7±17.5 mm^3).
The peptide formulations were prepared once for the duration of the study. The vehicle was used as the vehicle control in the subsequent study.
Each group was assigned to a different treatment regimen. Group 1, as the vehicle negative control group, received the vehicle administered at 8 mL/kg body weight intravenously (I.V.) three times per week from Days 18-39. […] Group 4 received 6.7 mg/kg SP249 as an I.V. injection three times per week. […] Group 9 received 30 mg/kg SP252 as an I.V. injection three times per week.
During the dosing period, the mice were weighed and the tumors were measured 1-2 times per week. Tumor growth inhibition was compared with the vehicle group. Tumor growth inhibition (TGI) was calculated as
where x=day that effect of treatment is being assessed.

[3] = system: SJSA-1 osteosarcoma xenograft; assay: SJSA-1 osteosarcoma xenograft model, AP1 and palbociclib; format: in vivo, mice; conditions: AP1 20 mg/kg qwkx4, palbociclib 75 mg/kg qdx22
Experimental: (§1) The group was not euthanized, and the mice were allowed to recover. […] Animals were monitored individually. […] Responders were followed for a longer period of time. When the endpoint was reached, the animals were euthanized. […] An aqueous phosphate-buffered saline solution or sodium lactate (50 mM, pH 4.0) solution was used as the vehicle.

[4] = system: MCF-7.1 human breast carcinoma xenograft; assay: MCF-7.1 human breast carcinoma xenograft model, AP1 and palbociclib; format: in vivo, mice; conditions: AP1 20 mg/kg qwkx4, palbociclib 75 mg/kg qdx22
Experimental: as §1, with “Female athymic nude mice were provided with drinking water with 10 μg/mL with 17 beta estradiol supplementation 3 days prior to cell implantation and for the duration of the study. […] The mice were between 8-12 weeks of age at the beginning of the study. […] The” for “The”

A549 xenograft = A549 xenograft model, AP1 and palbociclib; format: in vivo, mice; conditions: AP1 20 mg/kg qwkx4, palbociclib 75 mg/kg qdx22
Excerpt: The arrows indicate spontaneous tumor shrinkage in vehicle controls. The arrows with * indicate poor growth of tumors late in the study.

[5] = d22, calculated using vehicle median volumes on d0 and d22
[6] = three consecutive measurements > 150% of d1 volume

Molecule: nivolumab: PD-1/PD-L1 antagonist
- PRs [1]: 2
- SDs [1]: 12
- complete responses [1]: 1
- shrinkages among SDs [1]: 2

Molecule: CC[C@H](C)[C@H](NC(=O)[C@H](C)NC(=O)[C@H](C)NC(=O)[C@]1(C)CCCC=CCCCCCC[C@@](C)(NC(=O)[C@H](Cc2ccccc2)NC(=O)[C@@H](NC(=O)[C@H](CC(C)C)NC(C)=O)[C@@H](C)O)C(=O)N[C@@H](CCC(=O)O)C(=O)N[C@@H](Cc2ccc(C(=O)O)cc2)C(=O)N[C@@H](Cc2c[nH]c3ccccc23)C(=O)N[C@@H](C)C(=O)N[C@@H](CCC(N)=O)C(=O)N[C@@H](CC2CCC2)C(=O)N1)C(=O)N[C@H](C)C(N)=O [SP249] (Ac-LTF[R8]E[Phe(4-COOH)]WAQ[Cba][S5]AAI[dA]-NH2; staple 4-11)
- mice died ([2]; […] three times per week): 4

Molecule: CC(=O)c1c(C)c2cnc(Nc3ccc(N4CCNCC4)cn3)nc2n(C2CCCC2)c1=O [palbociclib, reference compound]
- Median tumor volume (mm^3) D1 ([3]; D1 (start of dosing), SJSA-1 xenograft, nude mice): 126 mm^3
- Median tumor volume (mm^3) D22 ([3]; D22, SJSA-1 xenograft, nude mice): 1418 mm^3
- Median time to tumor volume > 1000 mm^3 ([3]; SJSA-1 xenograft): 18 days
- Median time to tumor volume > 2000 mm^3 ([3]; SJSA-1 xenograft): 24 days
- % TGI (±SEM) on d22 (end of dosing) [3, 5]: 51 (9) %
- Animals with disease progression [3, 6]: 9/10
- Median tumor volume (mm^3) D1 ([4]; D1 (start of dosing), MCF-7.1 xenograft, nude mice): 108 mm^3
- Median tumor volume (mm^3) D22 ([4]; D22, MCF-7.1 xenograft, nude mice): 196 mm^3
- Median time to tumor volume > 500 mm^3 ([4]; MCF-7.1 xenograft): 37 days
- Median time to tumor volume > 1000 mm^3 ([4]; MCF-7.1 xenograft): 48 days
- % TGI (±SEM) on d22 (end of dosing) [4, 5]: 84 (4) %
- Animals with disease progression [4, 6]: 8/8
- Median tumor volume (mm^3) D1 (A549 xenograft; D1 (start of dosing), A549 xenograft, nude mice): 126 mm^3
- Median tumor volume (mm^3) D22 (A549 xenograft; D22, A549 xenograft, nude mice): 288 mm^3
- % TGI (±SEM) on d22 (end of dosing) (A549 xenograft; [5]): 62 (7) %
- Animals with disease progression (A549 xenograft; [6]): 9/10

Molecule: pembrolizumab: PD-1/PD-L1 antagonist
- PRs [1]: 3
- SDs [1]: 11
- complete responses [1]: 2
- shrinkages among SDs [1]: 3

Molecule: CC(=O)N[C@@H](CC(C)C)C(=O)N[C@H](C(=O)N[C@@H](C)C(=O)N[C@]1(C)CCCCCCC=CCCC[C@@](C)(C(=O)N[C@@H](CO)C(=O)N[C@@H](C)C(=O)N[C@@H](C)C(N)=O)NC(=O)[C@H](CC2CCC2)NC(=O)[C@H](CCC(N)=O)NC(=O)[C@H](C)NC(=O)[C@H](Cc2c[nH]c3ccccc23)NC(=O)[C@H](Cc2ccc(O)cc2)NC(=O)[C@H](CCC(=O)O)NC1=O)[C@@H](C)O [SP252]
- body weight loss or deaths ([2]; 30 mg/kg three times per week): No body weight loss or deaths
- TGI ([2]; 30 mg/kg three times per week, day 32): 88%
